Source: paper PMC10702058, “Phase I dose escalation study and pilot efficacy analysis of LXI-15029, a novel mTOR dual inhibitor, in Chinese subjects with advanced malignant solid tumors” (BMC Cancer, 2023)
Like-named read-outs stand apart in the source and are kept apart here.

Assay: Plasma pharmacokinetics of LXI-15029 (LC-MS/MS, non-compartmental analysis)
Assay type: in vivo, human
Procedure: Blood samples for PK analysis of LXI-15029 were collected on day 1 (pre-dose, 20 min, 40 min, 1 h, 1.5 h, 2 h, 3 h, 4 h, 6 h, 8 h, 12 h, 24 h, and 48 h), cycle 1 day 8 (pre-dose), cycle 1 day 15 (pre-dose), and cycle 1 day 28 (pre-dose, 20 min, 40 min, 1 h, 1.5 h, 2 h, 3 h, 4 h, 6 h, 8 h, and 12 h). The blood samples were stored at -70°C until testing. The concentration of LXI-15029 in plasma was measured using the validated liquid chromatography-tandem mass spectrometry (LC–MS/MS) method. The concentration–time information of LXI-15029 was summarized based on pre-dose and post-dose data of each patient, to explore the linearity of exposure with single dose and steady-state situations, the time to reach steady state and the predictability of single to multiple doses PK. PK parameters were calculated separately for single and repeated doses using descriptive statistics. PK analysis was performed by Covance Central Laboratory using the validated software Phoenix WinNonlin Version 8.1 (Pharsight, Mountain View, CA). A standard non-compartmental method was used to calculate the peak plasma concentration (Cmax), time to reach the Cmax (tmax), the total area under the concentration–time curve (AUC0-∞), and the elimination half-life (t1/2).

[1] = 150-mg BID group, compared with preclinical data
[2] = human, plasma, oral, multiple dose, cycle 1 day 28, 10 mg BID (n = 3), geometric mean (coefficient of variation)
[3] = human, plasma, oral, multiple dose, cycle 1 day 28, 20 mg BID (n = 3), geometric mean (coefficient of variation)
[4] = human, plasma, oral, multiple dose, cycle 1 day 28, 40 mg BID (n = 3), geometric mean (coefficient of variation)
[5] = human, plasma, oral, multiple dose, cycle 1 day 28, 60 mg BID (n = 4), geometric mean (coefficient of variation)
[6] = human, plasma, oral, multiple dose, cycle 1 day 28, 80 mg BID (n = 4), geometric mean (coefficient of variation)
[7] = human, plasma, oral, multiple dose, cycle 1 day 28, 110 mg BID (n = 3), geometric mean (coefficient of variation)
[8] = human, plasma, oral, multiple dose, cycle 1 day 28, 150 mg BID (n = 4), geometric mean (coefficient of variation)

SMILES: CNC(=O)c1cccc(-c2ccc3c(N4C5CCC4COC5)nc(N4CCOC[C@@H]4C)nc3n2)c1 [LXI-15029]
- increase of Cmax and AUC versus dose proportionality (10 to 150 mg, single dose day 1 and cycle 1 day 28): greater than the dose proportionality
- exposure relative to the NOAEL in dogs [1]: fivefold higher
- exposure relative to the highest non-severely toxic dose (HNSTD) found in rats [1]: threefold higher
- Cmax ss versus dose (cycle 1 day 28, 10 to 150 mg): increased with the dose increase
- Cmin ss, Cav ss, and AUCss versus dose (cycle 1 day 28, 10 to 150 mg, except for 80 mg): increased with the dose increase
- exposure (Cmax and AUC) versus dose (day 1, 10 to 150 mg, except for 80 mg): increased with the dose increase
- concentration at 28 day (human, plasma, oral, 10 mg BID, multiple dose, cycle 1 day 28, 10 mg BID (n = 3), geometric mean (coefficient of variation), read-out: Cav ss): 0.0159 µg/mL
- Tmax at 28 day (human, plasma, oral, 10 mg, multiple dose, cycle 1 day 28, 10 mg BID (n = 3), median (min, max)): 1.02 h
- half-life (human, plasma, oral, 10 mg, single dose, cycle 1 day 1, 10 mg BID (n = 3), arithmetic mean ± standard deviation, read-out: t1/2 (converted)): 0.95 ± 0.205 h
- Tmax (human, plasma, oral, 10 mg, single dose, cycle 1 day 1, 10 mg BID (n = 3), median (min, max), read-out: Tmax): 0.98 h
- concentration at 28 day (human, plasma, oral, 20 mg BID, multiple dose, cycle 1 day 28, 20 mg BID (n = 3), geometric mean (coefficient of variation), read-out: Cav ss): 0.0719 µg/mL
- concentration at 28 day (human, plasma, oral, 20 mg BID, multiple dose, cycle 1 day 28, 20 mg BID (n = 3), geometric mean (coefficient of variation), read-out: Cmin ss): 0.00161 µg/mL
- Tmax at 28 day (human, plasma, oral, 20 mg, multiple dose, cycle 1 day 28, 20 mg BID (n = 3), median (min, max)): 1.47 h
- half-life (human, plasma, oral, 20 mg, single dose, cycle 1 day 1, 20 mg BID (n = 3), arithmetic mean ± standard deviation, read-out: t1/2 (converted)): 1.47 ± 0.268 h
- Tmax (human, plasma, oral, 20 mg, single dose, cycle 1 day 1, 20 mg BID (n = 3), median (min, max), read-out: Tmax): 1 h
- concentration at 28 day (human, plasma, oral, 40 mg BID, multiple dose, cycle 1 day 28, 40 mg BID (n = 3), geometric mean (coefficient of variation), read-out: Cav ss): 0.139 µg/mL
- concentration at 28 day (human, plasma, oral, 40 mg BID, multiple dose, cycle 1 day 28, 40 mg BID (n = 3), geometric mean (coefficient of variation), read-out: Cmin ss): 0.00374 µg/mL
- Tmax at 28 day (human, plasma, oral, 40 mg, multiple dose, cycle 1 day 28, 40 mg BID (n = 3), median (min, max)): 0.67 h
- half-life (human, plasma, oral, 40 mg, single dose, cycle 1 day 1, 40 mg BID (n = 3), arithmetic mean ± standard deviation, read-out: t1/2 (converted)): 1.13 ± 0.324 h
- AUC(0-t) (human, plasma, oral, 40 mg, single dose, cycle 1 day 1, 40 mg BID (n = 3), geometric mean (coefficient of variation)): 1.68 µg·h/mL
- Tmax (human, plasma, oral, 40 mg, single dose, cycle 1 day 1, 40 mg BID (n = 3), median (min, max), read-out: Tmax): 0.68 h
- concentration at 28 day (human, plasma, oral, 60 mg BID, multiple dose, cycle 1 day 28, 60 mg BID (n = 4), geometric mean (coefficient of variation), read-out: Cav ss): 0.477 µg/mL
- concentration at 28 day (human, plasma, oral, 60 mg BID, multiple dose, cycle 1 day 28, 60 mg BID (n = 4), geometric mean (coefficient of variation), read-out: Cmin ss): 0.035 µg/mL
- Tmax at 28 day (human, plasma, oral, 60 mg, multiple dose, cycle 1 day 28, 60 mg BID (n = 4), median (min, max)): 0.98 h
- half-life (human, plasma, oral, 60 mg, single dose, cycle 1 day 1, 60 mg BID (n = 4), arithmetic mean ± standard deviation, read-out: t1/2 (converted)): 2 ± 0.599 h
- Tmax (human, plasma, oral, 60 mg, single dose, cycle 1 day 1, 60 mg BID (n = 4), median (min, max), read-out: Tmax): 1.25 h
- concentration at 28 day (human, plasma, oral, 80 mg BID, multiple dose, cycle 1 day 28, 80 mg BID (n = 4), geometric mean (coefficient of variation), read-out: Cav ss): 0.435 µg/mL
- concentration at 28 day (human, plasma, oral, 80 mg BID, multiple dose, cycle 1 day 28, 80 mg BID (n = 4), geometric mean (coefficient of variation), read-out: Cmin ss): 0.00641 µg/mL
- Tmax at 28 day (human, plasma, oral, 80 mg, multiple dose, cycle 1 day 28, 80 mg BID (n = 4), median (min, max)): 1.08 h
- half-life (human, plasma, oral, 80 mg, single dose, cycle 1 day 1, 80 mg BID (n = 4), arithmetic mean ± standard deviation, read-out: t1/2 (converted)): 1.33 ± 0.174 h
- Tmax (human, plasma, oral, 80 mg, single dose, cycle 1 day 1, 80 mg BID (n = 4), median (min, max), read-out: Tmax): 0.87 h
- concentration at 28 day (human, plasma, oral, 110 mg BID, multiple dose, cycle 1 day 28, 110 mg BID (n = 3), geometric mean (coefficient of variation), read-out: Cav ss): 1.08 µg/mL
- concentration at 28 day (human, plasma, oral, 110 mg BID, multiple dose, cycle 1 day 28, 110 mg BID (n = 3), geometric mean (coefficient of variation), read-out: Cmin ss): 0.152 µg/mL
- Tmax (human, plasma, oral, 110 mg, multiple dose, cycle 1 day 28, 110 mg BID (n = 3), median (min, max), read-out: Tmax ss): 0.67 h
- half-life (human, plasma, oral, 110 mg, single dose, cycle 1 day 1, 110 mg BID (n = 3), arithmetic mean ± standard deviation, read-out: t1/2 (converted)): 1.48 ± 0.531 h
- Tmax (human, plasma, oral, 110 mg, single dose, cycle 1 day 1, 110 mg BID (n = 3), median (min, max), read-out: Tmax): 0.7 h
- concentration at 28 day (human, plasma, oral, 150 mg BID, multiple dose, cycle 1 day 28, 150 mg BID (n = 4), geometric mean (coefficient of variation), read-out: Cav ss): 2.12 µg/mL
- concentration at 28 day (human, plasma, oral, 150 mg BID, multiple dose, cycle 1 day 28, 150 mg BID (n = 4), geometric mean (coefficient of variation), read-out: Cmin ss): 0.452 µg/mL
- Tmax (human, plasma, oral, 150 mg, multiple dose, cycle 1 day 28, 150 mg BID (n = 4), median (min, max), read-out: Tmax ss): 0.98 h
- half-life (human, plasma, oral, 150 mg, single dose, cycle 1 day 1, 150 mg BID (n = 4), arithmetic mean ± standard deviation, read-out: t1/2 (converted)): 1.94 ± 0.706 h
- Tmax (human, plasma, oral, 150 mg, single dose, cycle 1 day 1, 150 mg BID (n = 4), median (min, max), read-out: Tmax): 0.82 h
- half-life (human, plasma, oral, after multiple dosings, read-out: arithmetic mean of t1/2 across dose cohorts): 1.13 to 3.26 h
- half-life (human, plasma, oral, after single dosing, read-out: arithmetic mean of t1/2 across dose cohorts): 0.95 to 2 h
- Tmax (human, plasma, oral, cycle 1 day 28, dose range 10 to 150 mg, read-out: median range of Tmax ss): 0.67 to 1.47 h
- Tmax (human, plasma, oral, single dose on day 1, across dose groups, read-out: median range of Tmax): 0.68 to 1.25 h
- AUC [2]: 0.191 µg·h/mL
- Cmax at 28 day [2]: 0.115 µg/mL
- AUC [3]: 0.863 µg·h/mL
- Cmax at 28 day [3]: 0.35 µg/mL
- AUC [4]: 1.67 µg·h/mL
- Cmax at 28 day [4]: 1.01 µg/mL
- AUC [5]: 5.73 µg·h/mL
- Cmax at 28 day [5]: 1.69 µg/mL
- AUC [6]: 5.22 µg·h/mL
- Cmax at 28 day [6]: 2.26 µg/mL
- AUC [7]: 12.9 µg·h/mL
- Cmax at 28 day [7]: 3.93 µg/mL
- AUC [8]: 25.5 µg·h/mL
- Cmax at 28 day [8]: 5.84 µg/mL
- AUC(0-inf) (human, plasma, oral, single dose, cycle 1 day 1, 10 mg BID (n = 3), geometric mean (coefficient of variation)): 0.111 µg·h/mL
